Measured values as given in patent publication US11820766B2, “Monoacylglycerol lipase modulators” (Janssen Pharmaceutica NV, priority 2018, dated 2023).

Each compound was assayed against T1, human MGL from HeLa cells (Homo sapiens, UniProt Q99685) (assay: In vitro MGL activity assay: [glycerol-1,3-3H]-oleyl glycerol cleavage by MGL from HeLa cells). Conditions: 300 nM [Glycerol-1,3-3H]-oleyl glycerol, one hour.
T1 construct: combining endogenously expressed MGL from HeLa cells with test compounds; endogenous in cells; host or cells: HeLa cells / cell homogenates
T1 sequence (Q99685 1-303): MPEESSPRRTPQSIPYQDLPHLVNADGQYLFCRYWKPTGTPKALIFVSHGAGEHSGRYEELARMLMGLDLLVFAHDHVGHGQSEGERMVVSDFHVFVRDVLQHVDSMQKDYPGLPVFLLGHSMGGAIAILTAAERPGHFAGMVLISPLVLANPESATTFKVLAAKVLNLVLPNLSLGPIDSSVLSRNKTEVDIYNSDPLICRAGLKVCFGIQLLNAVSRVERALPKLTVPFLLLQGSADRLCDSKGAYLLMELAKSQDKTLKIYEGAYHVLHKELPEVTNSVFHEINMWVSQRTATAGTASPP
Format: biochemical
Text: MGL is the predominant hydrolase in HeLa cells/cell homogenates.

SMILES | IC50
COc1cc(F)cc(-c2c3c(nn2C)[C@H](C)N(C(=O)c2ccnc(OC)c2C)CC3)c1 [Example 613, [(7S)-3-(3-Fluoro-5-methoxy-phenyl)-2,7-dimethyl-5,7-dihydro-4H-pyrazolo[3,4-c]pyridin-6-yl]-(2-methoxy-3-methyl-4-pyridyl)methanone] | 27.8 nM
C[C@H]1c2nn(C)c(-c3cc(F)c(F)c(F)c3)c2CCN1C(=O)c1cnn(C)c1[C@H]1CC1F (mixture of isomers) [Example 339, ((S)-2,7-Dimethyl-3-(3,4,5-trifluorophenyl)-2,4,5,7-tetrahydro-6H-pyrazolo[3,4-c]pyridin-6-yl)(cis-5-(2-fluorocyclopropyl)-1-methyl-1H-pyrazol-4-yl)methanone] | 3.01 nM

Next, values leading:

IC50 | SMILES
26.4 nM | COc1cccc2c(C(=O)N3CCc4c(nn(C)c4-c4cc(F)c(F)c(F)c4)[C@@H]3C)cnn12 [Example 387, [(7S)-2,7-Dimethyl-3-(3,4,5-trifluorophenyl)-5,7-dihydro-4H-pyrazolo[3,4-c]pyridin-6-yl]-(7-methoxypyrazolo[1,5-a]pyridin-3-yl)methanone]
18.1 nM | C[C@H]1c2nn(C)c(-c3cccc4occc34)c2CCN1C(=O)c1ccc2ncccc2c1 [Example 535, [(7S)-3-(Benzofuran-4-yl)-2,7-dimethyl-5,7-dihydro-4H-pyrazolo[3,4-c]pyridin-6-yl]-(6-quinolyl)methanone]
72.7 nM | C[C@H]1c2nn(C)c(-c3cc(F)c(F)c(F)c3)c2CCN1C(=O)c1cccc2c1CNCC2 [Example 575, [(7S)-2,7-Dimethyl-3-(3,4,5-trifluorophenyl)-5,7-dihydro-4H-pyrazolo[3,4-c]pyridin-6-yl]-(1,2,3,4-tetrahydroisoquinolin-8-yl)methanone]
136 nM | C[C@H]1c2nn(C)c(-c3cc(F)c(F)c(F)c3)c2CCN1C(=O)c1cnc2c(c1)OCCO2 [Example 570, 2,3-Dihydro-[1,4]dioxino[2,3-b]pyridin-7-yl-[(7S)-2,7-dimethyl-3-(3,4,5-trifluorophenyl)-5,7-dihydro-4H-pyrazolo[3,4-c]pyridin-6-yl]methanone]
54.9 nM | C[C@H]1c2nn(C)c(-c3ccc(C(F)(F)F)cc3)c2CCN1C(=O)c1ccc2ncccc2c1 [Example 494, [(7S)-2,7-Dimethyl-3-[4-(trifluoromethyl)phenyl]-5,7-dihydro-4H-pyrazolo[3,4-c]pyridin-6-yl]-(6-quinolyl)methanone]
6.58 nM | Cc1cc(F)cc(-c2c3c(nn2C)[C@H](C)N(C(=O)c2ccc4ncccc4c2)CC3)c1 [Example 511, [(7S)-3-(3-Fluoro-5-methyl-phenyl)-2,7-dimethyl-5,7-dihydro-4H-pyrazolo[3,4-c]pyridin-6-yl]-(6-quinolyl)methanone]
16.2 nM | Cc1ccc2cc(C(=O)N3CCc4c(nn(C)c4-c4cc(F)c(F)c(F)c4)[C@@H]3C)ccc2n1 [Example 548, [(7S)-2,7-Dimethyl-3-(3,4,5-trifluorophenyl)-5,7-dihydro-4H-pyrazolo[3,4-c]pyridin-6-yl]-(2-methyl-6-quinolyl)methanone]

Same assay, conditions: 300 nM [Glycerol-1,3-3H]-oleyl glycerol, one hour incubation

SMILES | IC50
Cn1nc2c(c1-c1cccc(F)c1)CCN(C(=O)c1ccc3ncccc3c1)C2 [Example 100, (3-(3-Fluorophenyl)-2-methyl-2,4,5,7-tetrahydro-6H-pyrazolo[3,4-c]pyridin-6-yl)(quinolin-6-yl)methanone] | 125 nM
COc1cnccc1C(=O)N1CCc2c(nn(C)c2-c2cc(F)c(F)c(F)c2)[C@@H]1C [Example 311, [(7S)-2,7-Dimethyl-3-(3,4,5-trifluorophenyl)-5,7-dihydro-4H-pyrazolo[3,4-c]pyridin-6-yl]-(3-methoxy-4-pyridyl)methanone] | 87.1 nM
C[C@H]1c2nn(C)c(-c3cc(F)c(F)c(F)c3)c2CCN1C(=O)c1cncc2cccnc12 [Example 246, (S)-(2,7-Dimethyl-3-(3,4,5-trifluorophenyl)-2,4,5,7-tetrahydro-6H-pyrazolo[3,4-c]pyridin-6-yl)(1,6-naphthyridin-8-yl)methanone] | 20 nM
C[C@H]1c2nn(C)c(-c3cc(F)cc(F)c3)c2CCN1C(=O)c1ccc2ncc(OCCF)cc2c1 [Example 166, (S)-(3-(3,5-Difluorophenyl)-2,7-dimethyl-2,4,5,7-tetrahydro-6H-pyrazolo[3,4-c]pyridin-6-yl)(3-(2-fluoroethoxy)quinolin-6-yl)methanone] | 11.3 nM
C[C@H]1c2nn(C)c(-c3cccc(Cl)c3)c2CCN1C(=O)c1cnc2ccoc2c1 (single isomer, unassigned) [Example 128] | 26.3 nM
Cn1nc2c(c1-c1ccccc1)CCN(C(=O)c1c[nH]c3c(Cl)cccc13)C2 [Example 48, (7-Chloro-1H-indol-3-yl)(2-methyl-3-phenyl-2,4,5,7-tetrahydro-6H-pyrazolo[3,4-c]pyridin-6-yl)methanone] | 103 nM
COc1ccnc(C(=O)N2CCc3c(nn(C)c3-c3cc(F)c(F)c(F)c3)[C@@H]2C)c1Cl [Example 317, (3-Chloro-4-methoxy-2-pyridyl)-[(7S)-2,7-dimethyl-3-(3,4,5-trifluorophenyl)-5,7-dihydro-4H-pyrazolo[3,4-c]pyridin-6-yl]methanone] | 30.1 nM
C[C@H]1c2nn(C)c(-c3cccc(Cl)c3)c2CCN1C(=O)c1cc(Br)c2nccnc2c1 [Example 135, (S)-(8-Bromoquinoxalin-6-yl)(3-(3-chlorophenyl)-2,7-dimethyl-2,4,5,7-tetrahydro-6H-pyrazolo[3,4-c]pyridin-6-yl)methanone] | 10.6 nM

Continued, values first:

IC50 | SMILES
13.7 nM | C[C@H]1c2nn(C)c(-c3cc(F)c(F)c(F)c3)c2CCN1C(=O)c1cc(-c2cnn(C)c2)ccc1F [Example 274, [(7S)-2,7-Dimethyl-3-(3,4,5-trifluorophenyl)-5,7-dihydro-4H-pyrazolo[3,4-c]pyridin-6-yl]-[2-fluoro-5-(1-methylpyrazol-4-yl)phenyl]methanone]
138 nM | Cn1nc2c(c1-c1ccccc1)CCN(C(=O)c1cn(C)c3ccccc13)C2 [Example 52, (1-Methyl-1H-indol-3-yl)(2-methyl-3-phenyl-2,4,5,7-tetrahydro-6H-pyrazolo[3,4-c]pyridin-6-yl)methanone]
124 nM | C[C@H]1c2nn(C)c(-c3cc(F)c(F)c(F)c3)c2CCN1C(=O)c1cnc2c(cnn2C)c1 [Example 231, (S)-(2,7-Dimethyl-3-(3,4,5-trifluorophenyl)-2,4,5,7-tetrahydro-6H-pyrazolo[3,4-c]pyridin-6-yl)(1-methyl-1H-pyrazolo[3,4-b]pyridin-5-yl)methanone]
7.34 nM | C[C@H]1c2nn(C)c(-c3cc(F)c(F)c(F)c3)c2CCN1C(=O)c1ccccc1-n1cncn1 [Example 279, [(7S)-2,7-Dimethyl-3-(3,4,5-trifluorophenyl)-5,7-dihydro-4H-pyrazolo[3,4-c]pyridin-6-yl]-[2-(1,2,4-triazol-1-yl)phenyl]methanone]
206 nM | CC1c2nn(C)c(-c3cc4ccccc4n3C)c2CCN1C(=O)c1ccc2ncccc2c1 (centres unmarked) [Example 250, (2,7-Dimethyl-3-(1-methyl-1H-indol-2-yl)-2,4,5,7-tetrahydro-6H-pyrazolo[3,4-c]pyridin-6-yl)(quinolin-6-yl)methanone]
178 nM | C[C@H]1c2nn(C)c(-c3cc(F)c(F)c(F)c3)c2CCN1C(=O)c1cncc(-n2cccn2)c1 [Example 318, [(7S)-2,7-Dimethyl-3-(3,4,5-trifluorophenyl)-5,7-dihydro-4H-pyrazolo[3,4-c]pyridin-6-yl]-(5-pyrazol-1-yl-3-pyridyl)methanone]
